This note sets out measurements from patent US20250042898A1, “Pharmaceutical Compounds And Compositions As c-Kit Kinase Inhibitors” (Enanta Pharmaceuticals, Inc., priority 2023, published 2025).

For experiment [1], the target named is Recombinant human c-KIT kinase (Homo sapiens (Human), UniProt P10721). Description: c-KIT Kinase Chemiluminescence Assay (ADP-Glo). The experiment is classed as biochemical. The settings on record: recombinant human c-KIT 25 ng, ATP 50 μM, polyEY substrate, ADP-Glo luminescence. The source says: Staurosporine (AM-2282) and Imatinib (STI571) were purchased from Selleck Chemicals LLC (Houston, TX). The c-KIT reference compound THB001 (EP-053504) was synthesized by Enanta Pharmaceuticals, Inc. (Watertown, MA). The c-KIT Kinase Enzyme System (V4498) and ADP-Glo™ Kinase Assay kit (V6930) were purchased from Promega (Madison, WI). DMSO (D2650) was purchased from Sigma-Aldrich (Burlington, MA). ECHO-650 acoustic liquid handling system (67/492,212) and 384-well LDV ECHO source plates (LP-0200) were purchased from Labcyte, Inc (San Jose, CA). Envision Multimode Plate Reader (2104/464466) and ProxiPlate-384 Plus White 384-shallow well microplates (6008280) were purchased from PerkinElmer (Waltham, MA).
c-KIT Kinase Chemiluminescence Assay:
IC50 determination. Test compounds were dispersed into a 384-well low volume while ProxiPlate microplate from a DMSO solution using an ECHO 650 acoustic dispenser to generate a 11-point, 3.162-fold dilution, concentration curve starting at 10 μM in duplicate. Kinase Reaction: The kinase assay was based on the recommended protocol by c-KIT Kinase Enzyme System from Promega. Recombinant human c-KIT kinase in 3 μL of assay buffer (40 mM Tris pH 7.5, 20 mM MgCl2, 0.1 mg/mL BSA and 50 μM DTT) was added to the test or high control wells and 3 μL of assay buffer was added to the low control wells. The microplate was centrifuged at 800 rotations per minute (rpm) for 60 s and incubated at room temperature (RT) for 30 min. Next, 2 μL of buffered ATP and polyEY substrate solution was added to all wells. The microplate was centrifuged at 800 rpm for 60 s and incubated at RT for 2 h. The final assay contained c-KIT (25 ng), ATP (50 μM), polyEY substrate (0.2 μg/μL), test compounds (0-10 μM) and DMSO (1.7%) in 5 μL assay buffer. ADP detection with ADP-Glo™ Kinase Assay: After the kinase reaction incubation, 5 μL of ADP-Glo™ reagent was added to all wells. The microplate was centrifuged at 800 rpm for 60 s and incubated at RT for 40 min. Ten microliter (10 μL) of Kinase Detection Reagent (Luciferin-Luciferase system) was then added to all wells. The microplate was centrifuged at 800 rpm for 60 s and incubated at RT for 60 min. Kinase activity was measured as increase in luminescence at RT in an Envision plate reader equipped with 560 nm filters and operating in endpoint mode.
Data Analysis: Endpoint chemiluminescence from high and low control wells were used to calculate normalized c-KIT activity at various concentrations of test compounds. The normalized activities were fitted to inhibitor-versus-normalized response fit in GraphPad Prism 7 to determine half-maximal inhibitory concentration (IC50) and hill coefficient values (H).
c-KIT activity (%)=100/(1+I^H/IC50^H).
Where I is the inhibitor concentration and H is the Hill coefficient.
IC50 ranges are reported as follows: A<100 nM; B 0.1-1 μM; C>1 μM.
For orientation: ADP-Glo first removes unused ATP, then detects ADP through luciferase.

The next experiment concerns M-07e cells. Description: M-07e Cellular Assay (SCF-mediated cell proliferation, CellTiter Glo). The experiment is classed as cell-based. To be noted: Homo sapiens, SCF at EC90, 72 hours incubation, CellTiter Glo cell viability, read-out: M-7e EC50. The method, then:
M-07e cells (Creative Bioarray, CSC-C0249) which endogenously express human c-KIT were used to evaluate the effect of compounds on stem cell factor (SCF)-mediated cell proliferation. M-07e cells were cultured in growth media (RPMI+10% FBS+1% penicillin/streptomycin+10 ng/mL GM-CSF) at 5E5-1.5E6 cells/mL, replenishing media every 3-4 days. 1.5E4 cells were seeded per well in 384 well tissue culture treated plates in […] assay media (RPMI+10% FBS+1% penicillin/streptomycin) without growth factor stimulation and incubated at 37° C. in a CO2 humidity-controlled incubator. Twenty-four hours later, three-fold serially diluted test compounds in media containing SCF (at the previously determined EC90) were added to the plated M-07e cells and incubated for an additional 72 hours. Cell viability was determined by adding 25 μL CellTiter Glo (Promega) to the cells and the luminescence was measured using a Perkin Elmer Envision plate reader. The EC50 was determined using GraphPad Prism. Percent cell growth was determined after normalizing the curve to the mean RLU high control (no compound control wells) at 100% and the mean RLU low control (no SCF control wells) at 0%. EC50 curves were generated using a variable slope four-parameter logistic model with equation […]. ECso ranges are reported as follows: A<100 nM; B 0.1-1 μM; C>1 μM.
A general note: Cellular ATP, detected with luciferase, serves as a proxy for viable cell number.

Structures are written as SMILES. A value given as a limit tells only on which side of the number the result lay.

Recombinant human c-KIT kinase, sequence (P10721 26-976): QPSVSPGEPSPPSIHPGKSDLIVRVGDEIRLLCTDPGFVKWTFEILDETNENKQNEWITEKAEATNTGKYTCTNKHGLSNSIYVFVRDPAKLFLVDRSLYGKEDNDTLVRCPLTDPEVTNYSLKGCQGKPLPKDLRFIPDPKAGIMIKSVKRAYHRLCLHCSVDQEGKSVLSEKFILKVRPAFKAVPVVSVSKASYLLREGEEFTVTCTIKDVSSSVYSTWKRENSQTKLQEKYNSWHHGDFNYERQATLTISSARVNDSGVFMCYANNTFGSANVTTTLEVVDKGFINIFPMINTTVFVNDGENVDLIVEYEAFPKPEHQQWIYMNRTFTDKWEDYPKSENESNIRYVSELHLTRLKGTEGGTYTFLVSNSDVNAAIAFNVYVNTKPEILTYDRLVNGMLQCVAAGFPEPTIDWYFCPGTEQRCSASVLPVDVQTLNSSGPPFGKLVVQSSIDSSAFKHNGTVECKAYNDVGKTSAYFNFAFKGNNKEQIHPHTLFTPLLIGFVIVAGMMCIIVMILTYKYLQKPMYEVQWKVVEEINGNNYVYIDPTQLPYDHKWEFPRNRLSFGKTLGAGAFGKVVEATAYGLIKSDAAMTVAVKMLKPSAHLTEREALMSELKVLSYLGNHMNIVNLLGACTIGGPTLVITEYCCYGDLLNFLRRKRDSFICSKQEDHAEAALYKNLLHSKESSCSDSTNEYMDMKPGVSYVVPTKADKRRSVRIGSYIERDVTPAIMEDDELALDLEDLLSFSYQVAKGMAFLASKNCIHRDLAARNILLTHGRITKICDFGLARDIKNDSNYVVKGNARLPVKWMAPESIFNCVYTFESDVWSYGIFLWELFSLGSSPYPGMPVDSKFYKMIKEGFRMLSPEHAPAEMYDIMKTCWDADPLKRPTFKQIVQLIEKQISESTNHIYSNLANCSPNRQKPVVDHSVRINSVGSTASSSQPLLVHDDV

`O=C(Nc1cc(-c2noc(C3CC(F)(F)C3)n2)ccn1)c1cnc2ccccn12` [Example 2]: the IC50 in experiment [1] is above 1000 nM. In addition, the EC50 with M-07e cells is above 1000 nM. Take `Cc1sc(-c2noc([C@H]3C[C@@H]3F)n2)cc1NC(=O)c1cnc2ccccn12` [Example 3]: in experiment [1], the 50% inhibitory concentration (IC50) is 100 to 1000 nM. Also, in the experiment with M-07e cells, the EC50 fell in the range of 100 to 1000 nM. As to `Cc1ncc(-c2nnn(C3CC(F)(F)C3)n2)cc1NC(=O)c1cnc2ccc(N3CC4(C3)CC(O)(C(F)F)C4)cn12` [Example 16], in experiment [1], the 50% inhibitory concentration (IC50) was 100 to 1000 nM.

Turning to `Cc1ncc(-c2ncc(OC(F)(F)F)cn2)cc1NC(=O)c1cnc2ccc(N3CC4(C3)CC(O)(C(F)F)C4)cn12` [Example 14], in experiment [1], the IC50 was above 1000 nM. In the case of `Cc1ncc(-c2noc([C@H]3C[C@@H]3F)n2)cc1NC(=O)c1cnc2cc(N3CC4(C3)CC(O)(C(F)F)C4)ccn12` [Example 17], in experiment [1], the IC50 was 100 to 1000 nM.

Turning to `O=C(Nc1cc(-c2noc([C@H]3C[C@@H]3F)n2)ccn1)c1cnc2ccccn12` [Example 1], the IC50 in experiment [1] is above 1000 nM. For the same compound, the EC50 in the experiment with M-07e cells was above 1000 nM.

Turning to `Cc1ncc(-c2noc([C@H]3C[C@@H]3F)n2)cc1NC(=O)c1cnc2ccc(N3CC4(C3)CC(O)(C(F)F)C4)cn12` [Example 15], the IC50 in experiment [1] is 100 to 1000 nM. Consider `Cc1sc(-c2noc(C3CC(F)(F)C3)n2)cc1NC(=O)c1cnc2ccccn12` [Example 4], for which the IC50 in experiment [1] is 100 to 1000 nM. For the same compound, the 50% effective concentration (EC50) in the experiment on M-07e cells fell in the range of 100 to 1000 nM.

As a reminder, the IC50 is the midpoint of a concentration-inhibition curve. The term EC50 denotes the midpoint of the concentration-response curve.
